For 14 compounds, IC50 results are on record in patent US20250215029A1 (Recludix Pharma, Inc., priority 2022, published 2025).

Assay [1] concerns the target T1, Recombinant STAT6 protein (STAT6 (W123-T658)) (Homo sapiens, UniProt P42226).
T1 construct: Recombinant STAT6 protein (STAT6 (W123-T658))
T1 sequence (P42226 123-658): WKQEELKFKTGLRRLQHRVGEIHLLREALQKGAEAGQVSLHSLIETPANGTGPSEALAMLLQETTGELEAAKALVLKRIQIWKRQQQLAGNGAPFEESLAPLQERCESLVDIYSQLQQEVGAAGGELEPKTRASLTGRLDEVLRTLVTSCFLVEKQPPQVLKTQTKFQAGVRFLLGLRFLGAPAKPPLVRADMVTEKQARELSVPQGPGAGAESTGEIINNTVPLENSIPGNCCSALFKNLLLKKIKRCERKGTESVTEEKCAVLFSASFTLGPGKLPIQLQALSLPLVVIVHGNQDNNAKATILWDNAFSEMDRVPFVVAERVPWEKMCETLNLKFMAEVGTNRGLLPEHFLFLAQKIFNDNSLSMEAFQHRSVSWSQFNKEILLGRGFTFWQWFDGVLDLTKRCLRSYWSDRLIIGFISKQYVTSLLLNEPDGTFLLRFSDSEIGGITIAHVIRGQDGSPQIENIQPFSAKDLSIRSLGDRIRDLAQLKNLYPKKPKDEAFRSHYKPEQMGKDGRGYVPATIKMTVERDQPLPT
Description: STAT6 Fluorescence Polarization (FP) Assay. Type of assay: binding. The settings on record: STAT6 (W123-T658) 250 nM, probe 5-FAM-Ap[…]-NH2 2 nM, 45-minute incubation; read-out: STAT6 (FP assay IC50 class). In a few lines: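 Protein-probe mix (250 nM STAT6 W123-T658, 2 nM 5-FAM-pTyr peptide) in 10 mM HEPES pH 7.4, 50 mM NaCl, 1 mM EDTA, 0.05% Tween 20, 2 mM DTT; added to compound dilution series, 1% DMSO final; 45 min RT; FP read; IC50 via nonlinear regression.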
(In general: In fluorescence polarisation assays a small probe gives low polarisation when free and higher when bound to something large.)

In assay [2] the target is T2, Recombinant STAT3 protein (STAT3 (G127-I722)) (Homo sapiens, UniProt P40763).
T2 construct: Recombinant STAT3 protein (STAT3 (G127-I722))
Description: STAT3 Fluorescence Polarization (FP) Assay. Type of assay: binding. To be noted: STAT3 (G127-I722) 25 nM, probe 5-FAM-GpYLPQTV-NH2 2 nM, 45-minute incubation; read-out: STAT3 (FP assay IC50 class). In a few lines: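 Displacement of a 2 nM 5-FAM-labelled pY peptide (GpYLPQTV) from 25 nM recombinant STAT3 (G127-I722) was monitored by fluorescence polarization. Incubation lasted 45 min at room temperature in pH 7.4 HEPES buffer containing 1% DMSO.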

T2 sequence (P40763 127-722): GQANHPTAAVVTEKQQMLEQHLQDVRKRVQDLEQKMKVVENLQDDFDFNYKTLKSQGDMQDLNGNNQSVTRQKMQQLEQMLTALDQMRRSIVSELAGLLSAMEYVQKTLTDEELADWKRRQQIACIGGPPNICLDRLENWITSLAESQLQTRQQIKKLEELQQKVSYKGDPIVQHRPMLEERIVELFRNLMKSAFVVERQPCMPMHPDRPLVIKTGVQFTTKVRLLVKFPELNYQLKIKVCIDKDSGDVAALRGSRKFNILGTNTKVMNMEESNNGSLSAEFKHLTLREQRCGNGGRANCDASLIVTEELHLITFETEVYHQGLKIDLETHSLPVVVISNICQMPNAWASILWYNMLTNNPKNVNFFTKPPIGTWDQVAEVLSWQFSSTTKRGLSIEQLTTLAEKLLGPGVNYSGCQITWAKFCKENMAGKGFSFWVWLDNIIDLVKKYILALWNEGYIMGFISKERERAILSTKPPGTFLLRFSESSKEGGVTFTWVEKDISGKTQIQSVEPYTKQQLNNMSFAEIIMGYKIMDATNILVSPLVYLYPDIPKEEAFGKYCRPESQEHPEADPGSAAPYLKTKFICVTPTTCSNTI

As to `CCc1ccncc1C1CN(C(=O)[C@@H]2CC[C@@H]3CCC[C@H](NC(=O)c4cn5cc(CP(=O)(O)O)ccc5n4)C(=O)N32)C1` [Compound 575, ((2-(((3S,6S,9aS)-3-(3-(4-ethylpyridin-3-yl)azetidine-1-carbonyl)-5-oxooctahydro-1H-pyrrolo[1,2-a]azepin-6-yl)carbamoyl)imidazo[1,2-a]pyridin-6-yl)methyl)phosphonic acid], the IC50 is 3 to 30 µM in assay [1] and 1 to 10 µM in assay [2].

For the compound `CCc1ccncc1C1CN(C(=O)[C@@H]2CC[C@@H]3CCC[C@H](NC(=O)c4ccc5sc(CP(=O)(O)O)cc5c4)C(=O)N32)C1` [Compound 576, ((5-(((3S,6S,9aS)-3-(3-(4-ethylpyridin-3-yl)azetidine-1-carbonyl)-5-oxooctahydro-1H-pyrrolo[1,2-a]azepin-6-yl)carbamoyl)benzo[b]thiophen-2-yl)methyl)phosphonic acid], the IC50 in assay [1] lay within 3 to 30 µM; in assay [2] it was 0.1 to 1 µM.

`COc1cc(F)ncc1C1CN(C(=O)[C@@H]2CC[C@@H]3CCC[C@H](NC(=O)c4cc5cc(CP(=O)(O)O)ccc5s4)C(=O)N32)C1` [Compound 577, ((2-(((3S,6S,9aS)-3-(3-(6-fluoro-4-methoxypyridin-3-yl)azetidine-1-carbonyl)-5-oxooctahydro-1H-pyrrolo[1,2-a]azepin-6-yl)carbamoyl)benzo[b]thiophen-5-yl)methyl)phosphonic acid]: the figures for the IC50 in assay [1] and in assay [2] were 3 to 30 µM and 1 to 10 µM, respectively.

On to `COc1ccnc(F)c1C1CN(C(=O)[C@@H]2CC[C@@H]3CCC[C@H](NC(=O)c4cc5cc(CP(=O)(O)O)ccc5s4)C(=O)N32)C1` [Compound 578, ((2-(((3S,6S,9aS)-3-(3-(2-fluoro-4-methoxypyridin-3-yl)azetidine-1-carbonyl)-5-oxooctahydro-1H-pyrrolo[1,2-a]azepin-6-yl)carbamoyl)benzo[b]thiophen-5-yl)methyl)phosphonic acid], for which the IC50 lay within 3 to 30 µM in assay [1] and 1 to 10 µM in assay [2].

On to `O=C(N[C@H]1CCCC[C@H]2CC[C@@H](C(=O)N3CCC(c4ccccn4)CC3)N2C1=O)c1cc2cc(C(F)P(=O)(O)O)ccc2s1` (stereo partly drawn) [Compound 579, (fluoro(2-(((3S,6S,10aS)-5-oxo-3-(4-(pyridin-2-yl)piperidine-1-carbonyl)decahydropyrrolo[1,2-a]azocin-6-yl)carbamoyl)benzo[b]thiophen-5-yl)methyl)phosphonic acid], for which the IC50 was in the range of 3 to 30 µM in assay [1] and 0.1 to 1 µM in assay [2].

As for `Cc1nccc(F)c1C1CN(C(=O)[C@@H]2CC[C@@H]3CCC[C@H](NC(=O)c4cc5cc(CP(=O)(O)O)ccc5s4)C(=O)N32)C1` [Compound 580, ((2-(((3S,6S,9aS)-3-(3-(4-fluoro-2-methylpyridin-3-yl)azetidine-1-carbonyl)-5-oxooctahydro-1H-pyrrolo[1,2-a]azepin-6-yl)carbamoyl)benzo[b]thiophen-5-yl)methyl)phosphonic acid], the IC50 lay within 3 to 30 µM in assay [1] and 1 to 10 µM in assay [2].

Take `Cn1cc(F)c(N2C(=O)N(C(=O)[C@@H]3CC[C@@H]4CCCC[C@H](NC(=O)c5cc6cc(C(F)P(=O)(O)O)ccc6s5)C(=O)N43)C3(CC3)C2=O)cc1=O` (stereo partly drawn) [Compound 581, (fluoro(2-(((3S,6S,10aS)-3-(6-(5-fluoro-1-methyl-2-oxo-1,2-dihydropyridin-4-yl)-5,7-dioxo-4,6-diazaspiro[2.4]heptane-4-carbonyl)-5-oxodecahydropyrrolo[1,2-a]azocin-6-yl)carbamoyl)benzo[b]thiophen-5-yl)methyl)phosphonic acid]: the IC50 in assay [1] lay in the range of 0.3 to 3 µM; in assay [2], 1 to 10 µM.

Regarding `O=C(N[C@H]1CCC[C@H]2CC[C@@H](C(=O)N3CCC(c4ncncc4F)CC3)N2C1=O)c1cc2cc(C(F)P(=O)(O)O)ccc2s1` (stereo partly drawn) [Compound 582, (fluoro(2-(((3S,6S,9aS)-3-(4-(5-fluoropyrimidin-4-yl)piperidine-1-carbonyl)-5-oxooctahydro-1H-pyrrolo[1,2-a]azepin-6-yl)carbamoyl)benzo[b]thiophen-5-yl)methyl)phosphonic acid], the results for the half-maximal inhibitory concentration (IC50) in assay [1] and in assay [2] were 3 to 30 µM and 1 to 10 µM, respectively.

For the compound `O=C(N[C@H]1CCC[C@H]2CC[C@@H](C(=O)N3CC(c4ncncc4F)C3)N2C1=O)c1cc2cc(C(F)P(=O)(O)O)ccc2s1` (stereo partly drawn) [Compound 583, (fluoro(2-(((3S,6S,9aS)-3-(3-(5-fluoropyrimidin-4-yl)azetidine-1-carbonyl)-5-oxooctahydro-1H-pyrrolo[1,2-a]azepin-6-yl)carbamoyl)benzo[b]thiophen-5-yl)methyl)phosphonic acid], the IC50 lay within 3 to 30 µM in assay [1] and 0.1 to 1 µM in assay [2].

Regarding `Cn1ccc(=O)c(C2CN(C(=O)[C@@H]3CC[C@@H]4CCC[C@H](NC(=O)c5cc6cc(CP(=O)(O)O)ccc6s5)C(=O)N43)C2)c1` [Compound 584, ((2-(((3S,6S,9aS)-3-(3-(1-methyl-4-oxo-1,4-dihydropyridin-3-yl)azetidine-1-carbonyl)-5-oxooctahydro-1H-pyrrolo[1,2-a]azepin-6-yl)carbamoyl)benzo[b]thiophen-5-yl)methyl)phosphonic acid], the IC50 in assay [1] is 3 to 30 µM; in assay [2], 1 to 10 µM.

As to `C[C@H]1CC[C@H](NC(=O)c2cc3cc(CP(=O)(O)O)ccc3s2)C(=O)N2[C@H](CC[C@H]2C(=O)N2CC(c3cnccc3F)C2)C1` [Compound 585, ((2-(((3S,6S,9S,10aR)-3-(3-(4-fluoropyridin-3-yl)azetidine-1-carbonyl)-9-methyl-5-oxodecahydropyrrolo[1,2-a]azocin-6-yl)carbamoyl)benzo[b]thiophen-5-yl)methyl)phosphonic acid], the IC50 in assay [1] is 3 to 30 µM; in assay [2], less than 0.1 µM.

On to `CC(C)n1ccc(N2C(=O)N(C(=O)[C@@H]3CC[C@@H]4CCCC[C@H](NC(=O)c5cc6cc(C(F)P(=O)(O)O)ccc6s5)C(=O)N43)C3(CC3)C2=O)cc1=O` (stereo partly drawn) [Compound 586, (fluoro(2-(((3S,6S,10aS)-3-(6-(1-isopropyl-2-oxo-1,2-dihydropyridin-4-yl)-5,7-dioxo-4,6-diazaspiro[2.4]heptane-4-carbonyl)-5-oxodecahydropyrrolo[1,2-a]azocin-6-yl)carbamoyl)benzo[b]thiophen-5-yl)methyl)phosphonic acid], for which the IC50 in assay [1] lay within 0.3 to 3 µM; in assay [2], 1 to 10 µM.

As for `O=C(N[C@H]1CCCC[C@H]2CC[C@@H](C(=O)N3CCC(c4n[nH]cc4F)CC3)N2C1=O)c1cc2cc(C(F)P(=O)(O)O)ccc2s1` (stereo partly drawn) [Compound 587, (fluoro(2-(((3S,6S,10aS)-3-(4-(4-fluoro-1H-pyrazol-3-yl)piperidine-1-carbonyl)-5-oxodecahydropyrrolo[1,2-a]azocin-6-yl)carbamoyl)benzo[b]thiophen-5-yl)methyl)phosphonic acid], the IC50 fell in the range of 3 to 30 µM in assay [1] and 1 to 10 µM in assay [2].

Consider `O=C(N[C@H]1CCCC[C@H]2CC[C@@H](C(=O)N3CCC(c4ncncc4F)CC3)N2C1=O)c1cc2cc(C(F)P(=O)(O)O)ccc2s1` (stereo partly drawn) [Compound 588, (fluoro(2-(((3S,6S,10aS)-3-(4-(5-fluoropyrimidin-4-yl)piperidine-1-carbonyl)-5-oxodecahydropyrrolo[1,2-a]azocin-6-yl)carbamoyl)benzo[b]thiophen-5-yl)methyl)phosphonic acid], for which the figures for the IC50 in assay [1] and in assay [2] were 3 to 30 µM and 1 to 10 µM, respectively.

As a reminder, the IC50 is the concentration at which inhibition is half-maximal.
